# Test results: patent publication US12083089B2, “Compositions and methods for stimulating ventilatory and/or respiratory drive” (CASE WESTERN RESERVE UNIVERSITY, priority 2015, dated 2024)
# What was measured:
# [1] = tested on: freely moving rats; test: Arterial blood-gas chemistry and A-a gradient in morphine-treated rats; format: in vivo, rat; details: freely moving rats, morphine 10 mg/kg IV, then drug 500 μmol/kg IV 15 min later
# [2] = tested on: freely moving rats; test: Hot-plate (hind-paw withdrawal) latency (HPL), Hargreaves's test, morphine 10 mg/kg; format: in vivo, rat; details: morphine 10 mg/kg IV in vehicle-treated rats
# [3] = tested on: adult male rats; test: Hargreaves Hind-paw Latency Test, morphine 1 mg/kg; format: in vivo, rat; details: given alone, morphine sulfate 1 mg/kg IV
# [4] = tested on: adult male rats; test: Von Frey Test, morphine 1 mg/kg; format: in vivo, rat; details: given alone, morphine 1 mg/kg IV
# [5] = tested on: rats; test: Sedation observation in morphine-treated rats; details: morphine 10 mg/kg IV plus vehicle
smiles,measurement,setting,value
"CN1CC[C@]23c4c5ccc(O)c4O[C@H]2[C@@H](O)C=C[C@H]3[C@H]1C5 [Morphine, morphine]","changes in ABG chemistry (pH, pCO2, pO2 and sO2)",[1]; FIG. 18,"substantial falls in pH, pO2 and sO2 accompanied by substantial increases in pCO2"
same,changes in A-a gradient,[1]; FIG. 19,substantial and equivalent increases
same,duration of the increase in HPL,[2],at least 4 h
same,Hargreaves hind-paw withdrawal latency,"[3]; D-cystine diME 500 μmol/kg IV, FIG. 26 study",16.3 ± 1.8 s
same,Hargreaves hind-paw withdrawal latency,"[3]; L-cystine diME 500 μmol/kg IV, FIG. 24 study",19.5 ± 0.4 s
same,force needed to initiate hind-paw withdrawal (Von Frey),"[4]; D-cystine diME 500 μmol/kg IV, FIG. 27 study",177±8 grams
same,force needed to initiate hind-paw withdrawal (Von Frey),"[4]; L-cystine diME 500 μmol/kg IV, FIG. 25 study",88.3 ± 7.0 g
same,time for which full mobility was not evident,[5],at least 2 h
